“Also recorded” adds a separate entry of the source.
Tests used:
[1] = system: 5′-biotinylated C-CpG; test: TSM acoustic biosensor, peptide binding to immobilized C-CpG
Source text: To characterize the interaction of the studied synthetic ODNs with the LRR11 peptide, we applied the thickness shear mode (TSM) acoustic biosensor method, which is based on the investigation of ultrasonic waves in piezoelectric materials such as AT-cut quartz. This approach involved immobilizing a 5′-biotinylated ODN on the surface of TSM transducer covered by NeutrAvidin and then adding the LRR11 peptide. An unrelated peptide (URP) with a random primary structure ([…]) was used as a negative control. The measurement procedure was divided into several steps, in which each immobilization stage was followed by washing with an appropriate buffer solution; when peptide solutions at different concentrations (from 1 to 100 nM) were added to the surface-modified TSM transducer, a wash with Hanks buffer was used before increasing the peptide concentration.
Based on Langmuir isotherm Equation (1), (1) Δfcc=Δfsmaxc/KD+c where Δfs(c) is the frequency change at a certain peptide concentration under equilibrium conditions, (Δfs)max is the maximum frequency change, c is the peptide concentration, and KD is the equilibrium constant of dissociation, we estimated the (Δfs)max and KD values for binding of the LRR11 peptide to C-CpG and B-CpG (Table 3).
Using Sauerbrey’s Equation (2), (2) Δf=−2f02Δm/Aμqρq where f0 is the fundamental resonance frequency (in our case 8 MHz), Δm is the change in mass (in grams) of the adsorbed layer on the crystal surface, A is the effective crystal area (in our case 0.2 cm^2), μq = 2.947 × 10^11 g × cm^−1s^−2 is the shear modulus of elasticity, and ρq = 2.648 g × cm^−3 is the crystal density, surface concentrations of NeutrAvidin, ODN and LRR11 peptide were estimated based on changes of resonance frequency (Figure 4). According to Equation (2), the surface density of molecules, σ (in molecules/cm^2), can be calculated as σ = ΔmNA/(A × Mw), where NA is Avogadro’s number (=6.023 × 10^23 mol^−1), and Mw represents the molecular weight of the corresponding compound (NeutrAvidin: 65 kDa, 5′-biotinylated C-CpG: 7115.4 Da, and LRR11: 3421 Da). Based on this approach, we obtained the following surface concentration values: 1.94 × 10^13 cm^−2 for NeutrAvidin, 3.37 × 10^13 cm^−2 for C-CpG and 2.4 × 10^13 cm^−2 for LRR11. The NeutrAvidin has four binding sites, two of which are available for biotinylated ODN binding. This is due to the fact that the other two sites are inaccessible due to NeutrAvidin chemisorption on the TSM surface. Thus, the number of available binding sites for the ODN is 3.88 × 10^13 cm^−2. […] Therefore, the surface of the TSM transducer is practically completely saturated by C-CpG. Estimation of the surface concentration of LRR11 evidences that at 50 nM concentration of this peptide, it occupies almost 70.6% of the ODN molecules. […]

[2] = system: human neutrophils; test: Reactive oxygen species formation (H2DCF-DA); assay type: cell-based; settings: n = 3, Figure 8
Protocol: Figure 8 When added simultaneously, LRR11 potentiates the prooxidant effects of oligonucleotides. H2DCF-DA-stained PMNLs (1 × 10^6/mL) were cultured for 1 h at 37 °C in 5% CO2 without additives or in the presence of 1 µM ODN, supplemented (shaded) or not (solid fill) with 1 µM LRR11. DCF green fluorescence signals (ex. 485 nm, em. 538 nm) were monitored every 5 min for an hour. Values represent the means ± SEM of DCF fluorescence intensity increments (RFU) in 30 min after stimulus addition (n = 3). * p < 0.05 for the pairs of data specified, as indicated by two-way ANOVA followed by Tukey’s multiple comparison test.
The level of intracellular production of reactive oxygen species was monitored by measuring the green fluorescence of H2DCF-DA-labeled oxidized product incorporated into cells according to the manufacturer’s protocol. Briefly, human neutrophils were incubated with 5 μM carboxy-H2DCF-DA (Molecular Probe, Eugene, OR, USA) for 60 min at room temperature, followed by rinsing with PBS. […] Fluorescent cell staining (excitation at 485 nm and emission at 538 nm) was recorded at CLARIOstar fluorescence microplate reader, using MARS Data Analysis Software, version 3.30 (both hardware and software are from BMG Labtech, Ortenberg, Germany).

Row | Substance | KA ([1]; LRR11-C-CpG complex, KA = 1/KD) | −(Δfs)max ([1]; LRR11 to immobilized C-CpG, Langmuir fit, Hanks buffer, room temperature, LRR11 1-100 nM, three independent experiments) | change of ∆fs at low LRR11 concentrations ([1]; 1, 5, 10 nM LRR11, C-CpG) | effect of LRR11 on prooxidant potential of ODNs ([2]; 1 µM LRR11 + 1 µM ODN, 30 min) | effect of LRR11 alone on synthesis of reactive oxygen species ([2]; 1 µM LRR11, 37 °C)
1 | 5′-tcgtcgttttcggcgcgcgccg-3′ (DNA TCGTCGTTTTCGGCGCGCGCCG; chemistry not fully specified) [C-CpG] | 0.017 ± 0.007 nM⁻¹ | 33.9 ± 6.4 Hz |  |  | 
2 | QLRKLNLSFNYQKRVSFAHLSLAPSFGSLV [LRR11, 30 amino acid peptide from leucine-rich repeat of TLR9] |  |  | not significant or small changes of ∆fs | Notably enhancing the prooxidant potential of the studied ODNs, in particular, CpG-containing ones; also recorded: only CpG-ODNs in combination with LRR11 enhanced responses | does not affect the synthesis of reactive oxygen species

From paper PMC7961786, “Magic Peptide: Unique Properties of the LRR11 Peptide in the Activation of Leukotriene Synthesis in Human Neutrophils” (International Journal of Molecular Sciences, 2021)
